Converted amounts (≈) assume the structure as drawn.
Biological target: T1, intestinal maltase
T1 construct: gene Mgam; native, supernatant of rat intestinal acetone powder, not purified; maltase activity of several enzymes
Experiment: glucose release by glucose oxidase method, […] nm
Format: biochemical
Settings: maltose substrate (86 mM stock, 30 µL), 0.1 M phosphate buffer pH 6.9, 37 °C, 30 min; crude rat intestinal extract

- IC50 Values / Maltase: 0.89 ± 0.07 µg/mL (≈ 1.38 µM)
SMILES: C[C@H]1O[C@H](O[C@H]2[C@H](O)[C@@H](O)[C@@H](O[C@H]3[C@H](O)[C@@H](O)C(O)O[C@@H]3CO)O[C@@H]2CO)[C@H](O)[C@@H](O)[C@@H]1N[C@H]1C=C(CO)[C@@H](O)[C@H](O)[C@H]1O (stereo partly shown) [Acarbose]

— paper PMC7824535, “Inhibitory Effect of Antidesma bunius Fruit Extract on Carbohydrate Digestive Enzymes Activity and Protein Glycation In Vitro” (Antioxidants, 2020)
